These results are taken from patent publication US9694016B2 (Novartis AG, priority 2013, dated 2017).

b-Raf (V600E), sequence (P15056 whole entry V600E): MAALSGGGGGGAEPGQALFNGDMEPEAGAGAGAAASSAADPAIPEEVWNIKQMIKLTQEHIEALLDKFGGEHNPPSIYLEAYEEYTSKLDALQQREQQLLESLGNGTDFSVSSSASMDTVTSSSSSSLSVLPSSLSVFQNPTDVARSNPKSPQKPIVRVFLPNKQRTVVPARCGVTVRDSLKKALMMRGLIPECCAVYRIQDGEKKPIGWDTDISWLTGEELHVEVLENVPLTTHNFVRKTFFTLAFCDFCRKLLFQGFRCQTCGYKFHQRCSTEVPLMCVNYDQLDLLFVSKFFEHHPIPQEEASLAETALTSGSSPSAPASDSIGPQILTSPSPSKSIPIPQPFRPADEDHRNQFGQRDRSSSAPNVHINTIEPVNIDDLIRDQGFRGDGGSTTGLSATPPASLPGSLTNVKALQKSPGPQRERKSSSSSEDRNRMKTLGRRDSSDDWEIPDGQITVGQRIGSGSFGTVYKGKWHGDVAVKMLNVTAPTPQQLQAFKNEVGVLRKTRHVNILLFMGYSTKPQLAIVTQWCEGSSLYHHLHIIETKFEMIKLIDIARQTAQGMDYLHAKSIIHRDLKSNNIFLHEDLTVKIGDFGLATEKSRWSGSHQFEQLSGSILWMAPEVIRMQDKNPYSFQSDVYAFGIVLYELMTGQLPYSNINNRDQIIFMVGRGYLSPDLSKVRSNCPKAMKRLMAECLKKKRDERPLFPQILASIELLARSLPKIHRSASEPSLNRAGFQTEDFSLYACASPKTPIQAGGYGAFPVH

The first assay addresses b-Raf (V600E) (Homo sapiens (Human), UniProt P15056, V600E). Conditions: read-out: b-Raf IC-50; AlphaScreen, 60 min pre-incubation, 3 hours reaction.
On to `Cc1ccc(NC(=O)c2ccnc(C(C)(F)F)c2)cc1-c1cc(N2CCOCC2)c(=O)n(C)n1` [Example 657, 2-(1,1-difluoroethyl)-N-(4-methyl-3-(1-methyl-5-morpholino-6-oxo-1,6-dihydropyridazin-3-yl)phenyl)isonicotinamide], for which the IC50 worked out at 1.1 nM.
Regarding `Cc1ncc(NC(=O)c2ccnc(C(C)(C)F)c2)cc1-c1cc(N2CCOCC2)c(OC2CCOCC2)nn1` [Example 630, 2-(2-fluoropropan-2-yl)-N-(6-methyl-5-(5-morpholino-6-((tetrahydro-2H-pyran-4-yl)oxy)pyridazin-3-yl)pyridin-3-yl)isonicotinamide], the IC50 worked out at 2.9 nM.
In the case of `COCCOc1nnc(-c2cc(NC(=O)c3ccnc(C(C)(F)F)c3)ccc2C)cc1N1CCOCC1` [Example 597, 2-(1,1-difluoroethyl)-N-(3-(6-(2-methoxyethoxy)-5-morpholinopyridazin-3-yl)-4-methylphenyl)isonicotinamide], the IC50 turned out to be 0.5 nM.
In the case of `Cc1ccc(NC(=O)c2cnnc(C(C)(C)C#N)c2)cc1-c1cc(N2CCOCC2)n(C)c(=O)c1` [Example 489, 6-(2-cyanopropan-2-yl)-N-(4-methyl-3-(1-methyl-6-morpholino-2-oxo-1,2-dihydropyridin-4-yl)phenyl)pyridazine-4-carboxamide], the IC50 is 2.4 nM.
In the case of `Cc1ncc(NC(=O)c2ccnc(C(F)(F)F)c2)cc1-c1cc(N2CCOCC2)n(C)c(=O)c1` [Example 500], the IC50 came to 5.6 nM.
In the case of `Cc1ncc(NC(=O)c2ccnc(C(C)(F)F)c2)cc1-c1cncc(N2CCOCC2)n1` [Example 533, 2-(1,1-difluoroethyl)-N-(6-methyl-5-(6-morpholinopyrazin-2-yl)pyridin-3-yl)isonicotinamide], the IC50 was determined as 4.4 nM.
For the molecule `Cc1ccc(NC(=O)c2ccnc(C(F)(F)F)c2)cc1-c1cc(N2CCOCC2)n(C)c(=O)c1` [Example 485, N-(4-methyl-3-(1-methyl-6-morpholino-2-oxo-1,2-dihydropyridin-4-yl)phenyl)-2-(trifluoromethyl)isonicotinamide], the IC50 came to 1.1 nM.
Regarding `COc1nnc(-c2cc(NC(=O)c3ccnc(C4CC4)c3)cnc2C)cc1N1CCOCC1` [Example 606, 2-cyclopropyl-N-(5-(6-methoxy-5-morpholinopyridazin-3-yl)-6-methylpyridin-3-yl)isonicotinamide], the IC50 turned out to be 3.5 nM.

The assay is the same for the next values; noted with them: read-out: b-Raf IC-50; AlphaScreen, 60 min pre-incubation, reaction 3 hours at room temperature.
Regarding `Cc1ccc(NC(=O)c2cnnc(C3CC3)c2)cc1-c1cc(NCCO)nc(N2CCOCC2)c1` [Example 1048, 6-cyclopropyl-N-(3-(2-((2-hydroxyethyl)amino)-6-morpholinopyridin-4-yl)-4-methylphenyl)pyridazine-4-carboxamide], the IC50 amounted to 1.55 nM.
On the same count and under the same terms, under `Cc1ncc(NC(=O)c2ccnc(C(F)(F)F)c2)cc1-c1cc(N2CCOCC2)nc(N2CC(C)(O)C2)c1` [Example 1104, N-(2′-(3-hydroxy-3-methylazetidin-1-yl)-2-methyl-6′-morpholino-[3,4′-bipyridin]-5-yl)-2-(trifluoromethyl)isonicotinamide] stands 7.64 nM; under `Cc1ccc(NC(=O)c2cnnc(C(F)(F)F)c2)cc1-c1cc(N2CCOCC2)nc(NCCO)c1F` [Example 1007, N-(3-(3-fluoro-2-((2-hydroxyethyl)amino)-6-morpholinopyridin-4-yl)-4-methylphenyl)-6-(trifluoromethyl)pyridazine-4-carboxamide], 5.38 nM; under `Cc1ncc(NC(=O)c2cc(C(F)(F)F)ccn2)cc1-c1cc(N2CCOCC2)c(S(C)(=O)=O)nn1` [Example 923, N-(6-methyl-5-(6-(methylsulfonyl)-5-morpholinopyridazin-3-yl)pyridin-3-yl)-4-(trifluoromethyl)picolinamide], 5.46 nM.

The assay is the same for the next values; noted with them: read-out: b-Raf IC-50; Table 2; AlphaScreen, 3 hours reaction.
In the case of `Cc1ncc(NC(=O)c2ccnc(C(F)(F)F)c2)cc1-c1cnc(OC2CCOCC2)c(N2CCOCC2)c1` [Example 314, N-(2-methyl-5′-morpholino-6′-((tetrahydro-2H-pyran-4-yl)oxy)-[3,3′-bipyridin]-5-yl)-2-(trifluoromethyl)isonicotinamide], the IC50 was found to be 6 nM.
